Reference: ChEMBL document CHEMBL2203090, “Synthesis and Evaluation of 5-Fluoro-2-aryloxazolo[5,4-b]pyridines as β-Amyloid PET Ligands and Identification of MK-3328” (ACS Med Chem Lett, 2011)
pIC50, pKd: −log10 of the molar value. Active and inactive are the calls of the source. The rule behind the calls is not given here.

Assays:
[1] = target: T1, Amyloid-beta precursor protein (Homo sapiens, UniProt P05067); assay: […] amyloid beta plaque in cortex homogenate isolated from Alzheimer disease patient after 90 mins by scintillation counting; type: tissue-based; conditions: for Bmax: tested as the 3H-labelled form
[2] = target: T1, Amyloid-beta precursor protein; assay: […] amyloid beta plaque in cortex homogenate isolated from Alzheimer disease patient at 4.2 nM after 90 mins by scintillation counting in presence of [4-(5-Fluoro-oxazolo[5,4-b]pyridin-2-yl)-phenyl]-dimethyl-amine; type: tissue-based; conditions: tested as the 3H-labelled form
P-gp = assay: Activity at human P-gp expressed in LLC-PK1 cells assessed as efflux ratio of apparent permeability; type: ADME, cell-based
[3] = target: T1, Amyloid-beta precursor protein; assay: Binding affinity to amyloid beta plaque in cortex homogenate isolated from Alzheimer disease patient at 5 nM after 90 mins by autoradiography; type: tissue-based; conditions: tested as the 3H-labelled form
[4] = target: T1, Amyloid-beta precursor protein; assay: Binding affinity to human amyloid beta plaque
[5] = target: T1, Amyloid-beta precursor protein; assay: Ratio of Bmax to Kd for amyloid beta plaque in cortex homogenate isolated from Alzheimer disease patient; type: tissue-based; conditions: tested as the 3H-labelled form
P-gp (Homo sapiens) = assay: Activity at human P-gp expressed in pig LLC-PK1 cells assessed as passive apparent permeability
[6] = target: T1, Amyloid-beta precursor protein; assay: […] amyloid beta plaque in cortex homogenate isolated from Alzheimer disease patient at 9.6 nM after 90 mins by scintillation counting in presence of 5-Fluoro-2-(1-methyl-1H-pyrrolo[2,3-b]pyridin-5-yl)-oxazolo[5,4-b]pyridine; type: tissue-based; conditions: tested as the 3H-labelled form
[7] = target: T1, Amyloid-beta precursor protein; assay: […] amyloid beta plaque in cortex homogenate isolated from Alzheimer disease patient at 6.4 nM after 90 mins by scintillation counting in presence of 5-Fluoro-2-(1-methyl-1H-indol-5-yl)-oxazolo[5,4-b]pyridine; type: tissue-based; conditions: tested as the 3H-labelled form
[8] = Drug uptake in rhesus monkey cerebellum after 90 mins; type: ADME, tissue-based, Macaca mulatta; conditions: in vivo, 1.5 h
Brain = assay: Drug uptake in rhesus monkey brain white matter up to 90 mins; type: ADME, tissue-based, Macaca mulatta; conditions: in vivo, 1.5 h
[9] = Drug uptake in rhesus monkey cerebellum up to 90 mins; type: ADME, tissue-based, Macaca mulatta; conditions: in vivo, 1.5 h
[10] = Drug uptake in rhesus monkey cortex after 90 mins; type: ADME, tissue-based, Macaca mulatta; conditions: in vivo, 1.5 h
[11] = Drug uptake in rhesus monkey cortex up to 90 mins; type: ADME, tissue-based, Macaca mulatta; conditions: in vivo, 1.5 h

T1 sequence (P05067 whole entry): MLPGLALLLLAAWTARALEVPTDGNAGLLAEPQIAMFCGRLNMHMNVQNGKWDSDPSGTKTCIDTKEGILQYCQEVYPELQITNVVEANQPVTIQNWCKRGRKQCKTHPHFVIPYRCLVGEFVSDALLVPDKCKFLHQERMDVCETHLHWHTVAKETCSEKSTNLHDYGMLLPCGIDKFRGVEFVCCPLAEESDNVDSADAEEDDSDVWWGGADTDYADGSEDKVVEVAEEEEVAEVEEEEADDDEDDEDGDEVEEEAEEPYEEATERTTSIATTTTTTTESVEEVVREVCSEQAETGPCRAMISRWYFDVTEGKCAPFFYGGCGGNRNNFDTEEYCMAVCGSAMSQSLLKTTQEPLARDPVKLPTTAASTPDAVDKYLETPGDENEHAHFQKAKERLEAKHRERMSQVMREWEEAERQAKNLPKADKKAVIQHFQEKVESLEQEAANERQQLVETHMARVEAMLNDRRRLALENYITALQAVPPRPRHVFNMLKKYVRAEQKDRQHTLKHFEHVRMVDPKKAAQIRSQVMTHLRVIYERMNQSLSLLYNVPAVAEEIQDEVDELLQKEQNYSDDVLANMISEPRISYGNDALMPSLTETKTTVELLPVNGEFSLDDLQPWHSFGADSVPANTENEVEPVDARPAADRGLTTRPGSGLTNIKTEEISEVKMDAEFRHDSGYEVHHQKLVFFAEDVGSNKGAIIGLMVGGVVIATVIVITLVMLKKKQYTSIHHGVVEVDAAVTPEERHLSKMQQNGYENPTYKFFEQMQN

SMILES | efflux ratio (P-gp) | pIC50 [4] | Papp (P-gp (Homo sapiens)) [×10⁻⁶ cm/s] | other results
CN(C)c1ccc(-c2nc3ccc(F)nc3o2)cc1 | < 3 | 8.40 | > 20 | Bmax [1]: 2090 nM; Activity [2]: 50%; Activity [3]: Active; Ratio [5]: 464
Cn1ccc2cc(-c3nc4ccc(F)nc4o3)ncc21 | < 3 | < 6.00 | > 20 | –
Cn1ncc2cc(-c3nc4ccc(F)nc4o3)ccc21 | < 3 | 7.31 | > 20 | –
Cn1cnc2cc(-c3nc4ccc(F)nc4o3)ccc21 | < 3 | < 6.00 | > 20 | –
[3H]C([3H])([3H])n1ccc2cc(-c3nc4ccc(F)nc4o3)ccc21 | – | – | – | pKd [1]: 8.19
Fc1ccc2nc(-c3cnc4[nH]ccc4c3)oc2n1 | < 3 | 7.59 | > 20 | –
Cn1ccc2cc(-c3nc4ccc(F)nc4o3)cnc21 | < 3 | 7.98 | > 20 | Bmax [1]: 1100 nM; Activity [6]: 35%; Activity [3]: Active; Ratio [5]: 117
CNc1ccc(-c2nc3ccc(F)nc3o2)cn1 | < 3 | 6.99 | > 20 | –
CNc1ccc(-c2nc3ccc(F)nc3o2)cc1 | < 3 | 7.64 | > 20 | –
Fc1ccc2nc(-c3ccc4ncsc4c3)oc2n1 | < 3 | 7.45 | > 20 | –
Cn1ccc2cc(-c3nc4ccc(F)nc4o3)ccc21 | < 3 | 8.10 | > 20 | Bmax [1]: 1450 nM; Activity [7]: 50%; Activity [3]: inactive; Ratio [5]: 232
Cn1ncc2cc(-c3nc4ccc(F)nc4o3)cnc21 | < 3 | 7.52 | > 20 | –
CN1CCc2cc(-c3nc4ccc(F)nc4o3)cnc21 | < 3 | 7.33 | > 20 | –
COc1ccc(-c2nc3ccc(F)nc3o2)cc1 | < 3 | 7.49 | > 20 | –
Fc1ccc2nc(-c3ccc4cc[nH]c4c3)oc2n1 | < 3 | 7.34 | > 20 | –
CN(C)c1ccc(-c2nc3ccc(F)nc3o2)cn1 | < 3 | 7.38 | > 20 | –
[3H]C([3H])([3H])N(C)c1ccc(-c2nc3ccc(F)nc3o2)cc1 | – | – | – | pKd [1]: 8.35
Fc1ccc2nc(-c3ccc4[nH]ccc4c3)oc2n1 | < 3 | 7.86 | > 20 | –
[3H]C([3H])([3H])n1ccc2cc(-c3nc4ccc(F)nc4o3)cnc21 | – | – | – | pKd [1]: 8.02
Cn1ccc2cc(-c3nc4ccc([18F])nc4o3)cnc21 | – | – | – | Drug uptake [8]: Not Active; Drug uptake (Brain): Not Active; SUV [9]: 3; Drug uptake [10]: Not Active; SUV [11]: 2.7
